These results are taken from US9890176B2, “Mannose derivatives for treating bacterial infections” (Vertex Pharmaceuticals Incorporated, priority 2013, dated 2018).

Molecules are shown by their SMILES.

The test system of the test is bacterial strain LF82 binding to the glycoprotein BSA-(Mannose)3. Nature of the test: Bacterial Binding Assay (BBA). The class given is cell-based, Escherichia coli. To be noted: read-out: Bacterial Binding Assay IC50. The text has this:
The purpose of the Bacterial Binding Assay (BBA) is to determine the inhibition activity of selective FimH antagonists on the bacterial strain LF82 binding to the glycoprotein BSA-(Mannose)3.
Below is a list of the Materials used to run the BBA are described below. • 1. LB broth: Supplier: Gibco, #10855 • 2. D-PBS: Supplier: Wisent, #311-425-CL • 3. LB agar plates • 4. 96-well black plate (high binding): Supplier: Costar, #3925 • 5. TopSeal™-A adhesive sealing films; Supplier PerkinElmer, #6005185 • 6. Carbonate-bicarbonate buffer pH 9.6 tablets, Supplier: Medicago, #09-8922-24 • 7. Water, Supplier: Gibco, #15230-162 • 8. Bovine serum albumin (BSA): Supplier: Sigma, #A-7888 • 9. (Man)-3-BSA (α1-3, α1-6 Mannotriose-BSA, 1 mg), V-Labs, #NGP1336, lot#HGDX37-169-1 • 10. Tween 20: Supplier: Sigma, #P9416 • 11. Bright-Glo Luciferase Assay System: Supplier: Promega, #E2610 • 12. LF82/Luciferase strain: Invasive ability of an Escherichia coli strain isolated from the ileal mucosa of a patient with Crohn's disease. Boudeau J, Glasser A L, Masseret E, Joly B, Darfeuille-Michaud A, Infect Immun. 1999, 67(9), 4499-509
Solutions and buffers used to run the BBA are described below. • 1. 0.04M carbonate-bicarbonate buffer (coating buffer) • 2. […] 1 mg of (Man)-3-BSA in 25 mL of water. • 3. 4000 ng/mL BSA • 4. 40 ng/mL BSA • 5. 1 μg/mL BSA-(Man)3: 150 μL of 40 ng/mL BSA-(Man)3+5.85 mL of 40 ng/mL BSA • 6. 0.5 μg/mL BSA-(Man)3 in 0.02M carbonate-bicarbonate buffer. • 7. 20 ng/mL BSA in 0.02M carbonate-bicarbonate buffer • 8. Blocking buffer (2% BSA/DPBS): 1 g of BSA in 50 mL D-PBS • 9. 2× binding buffer (0.2% BSA/D-PBS): 5 mL of blocking buffer+45 mL D-PBS. • 10. Washing buffer (D-PBS/0.01% Tween 20): 10 μL of Tween 20 in 100 mL D-PBS. • 11. 1× Bright-Glo Luciferase substrate:Dilute 1:1 the Bright-Glo Luciferase Assay System with D-PBS The experimental protocol to run the BBA is described below.
Overnight culture of LF82/Luciferase strain: Into two Falcon 50 mL tubes, add 20 mL of LB+20 μL of 50 mg/mL Kanamycin and inoculate with a loop from glycerol stock of the LF82/Luciferase strain. Incubate overnight at 37° C. with no shaking.
Glycoprotein coating of 96-well plates: Add 100 μL/well of 0.5-2 μg/mL BSA-(Man)3. 20 μg/mL BSA is used as the control background. Seal plate using an adhesive sealing film and incubate overnight at room temperature. Wash the 96-well plate three times with 150 μL/well of D-PBS, add 170 μL/well of blocking solution and incubate 45 min (minimum) at room temperature.
Preparation of bacterial suspension: Mix the two cultures tubes (40 mL) and perform a 1:10 dilution in LB (900 μl LB+100 μl culture. Measure optical density (OD) of the bacterial cultures. OD1 ˜5×10^8 cells/mL. Centrifuge LF82 culture for 20 min at 3500 rpm at room temperature. Re-suspend bacterial pellet in D-PBS and centrifuge again for 20 min at 3500 rpm. Re-suspend bacterial pellet in D-PBS to obtain a bacterial concentration of 2×10^9 bacteria/mL. Dilute 1/10 in D-PBS to obtain a final bacterial concentration of 2×10^8 bacteria/mL (=107 bacteria/50 μL). Perform 1/10 serial dilutions in LB of each bacterial suspension, plate 10 μL of dilutions on LB agar plates (final dilutions of 10^−7) and incubate overnight at 37° C. and count CFUs to determine the actual bacteria density in the assay.
Bacterial binding assay: Add 147 μL 2× binding buffer to compound plate (containing 3 μL of compound). After blocking step is performed (at least 45 min), wash plates three times with 200 μL/well of D-PBS. With a 100 μL multichannel manual pipettor, add 50 μL/well of compound diluted in 2× binding buffer. With a 100 μL multichannel manual pipettor, add 50 μL/well of bacterial suspension. Agitate at slow speed for 1 min and incubate 40-75 min at room temperature. Wash 5 times with 150 μL/well of washing buffer and then once with D-PBS. Add 100 μL/well of 1× Bright-Glo Luciferase substrate. […]
On to `Cc1cc(-c2cccc(C(=O)O)c2)ccc1O[C@H]1O[C@H](CO)[C@@H](O)[C@H](O)[C@]1(C)O` [Compound 21], for which the IC50 was found to be 112 ± 37 nM.

For the molecule `Cc1cc(-c2cccc(C(=O)NCCOCCOCCN)c2)ccc1O[C@H]1O[C@H](CO)[C@@H](O)[C@H](O)[C@]1(C)O` [Compound 22], the 50% inhibitory concentration (IC50) was 15 ± 4 nM.

With `CNC(=O)c1cccc(-c2ccc(O[C@H]3O[C@H](CO)[C@@H](O)[C@H](O)[C@@]3(O)COCc3ccccc3)c(C)c2)c1` [Compound 23], the IC50 was determined as 115 ± 25 nM.

In the case of `CNC(=O)c1cccc(-c2ccc(O[C@H]3O[C@H](CO)[C@@H](O)[C@H](O)[C@@]3(O)CO)c(C)c2)c1` [Compound 24], the half-inhibitory concentration (IC50) was found to be 19 ± 3 nM.

For the molecule `CNC(=O)c1cccc(-c2ccc(O[C@H]3O[C@H]([C@@H](O)C(C)C)[C@@H](O)[C@H](O)[C@@H]3O)c(C)c2)c1` [Compound 30], the half-maximal inhibitory concentration (IC50) was over 10000 nM.

In the case of `CC[C@H](O)[C@H]1O[C@H](Oc2ccc(-c3cccc(C(=O)NC)c3)cc2C)[C@@H](O)[C@@H](O)[C@@H]1O` [Compound 31], the IC50 was over 10000 nM.

Consider `O=[N+]([O-])c1cccc(-c2ccc3c(c2)CC[C@]2(O3)O[C@H](CO)[C@@H](O)[C@H](O)[C@@H]2O)c1` [Compound 34], for which the IC50 is 79 ± 31 nM.

For the molecule `C[C@@]1(O)[C@@H](OCc2ccccc2)O[C@H](CO)[C@@H](O)[C@@H]1O` [Compound 37], the IC50 is over 10000 nM.

For `CNC(=O)c1cccc(-c2ccc(O[C@H]3O[C@H](CO)[C@@H](O)[C@H](O)[C@@]3(O)CN=[N+]=[N-])c(C)c2)c1` [Compound 38], the IC50 amounted to 105 ± 5 nM.

Take `CNC(=O)c1cccc(-c2ccc(O[C@H]3O[C@H](CO)[C@@H](O)[C@H](O)[C@]3(C)O)cc2F)c1` [Compound 39]: the IC50 came to 265 ± 135 nM.

`CNC(=O)c1cccc(-c2ccc(O[C@H]3O[C@H](CO)[C@@H](O)[C@H](O)[C@]3(C)O)cc2Cl)c1` [Compound 40]: the concentration for half-maximal inhibition (IC50) was found to be 220 ± 110 nM.

With `CNC(=O)c1cccc(-c2ccc(O[C@H]3O[C@H](CO)[C@@H](O)[C@H](O)[C@]3(C)O)cc2OC)c1` [Compound 41], the concentration for half-maximal inhibition (IC50) was found to be 220 ± 110 nM.

For `CNC(=O)c1cccc(-c2ccc(O[C@H]3O[C@H](CO)[C@@H](O)[C@H](O)[C@]3(C)O)cc2C)c1` [Compound 42], the IC50 amounted to 375 ± 255 nM.

On to `CNC(=O)c1cccc(-c2ccc(O[C@H]3O[C@H](CO)[C@@H](O)[C@H](O)[C@]3(C)O)cc2C(F)(F)F)c1` [Compound 43], for which the IC50 turned out to be 785 ± 474 nM.

On to `CNC(=O)c1cccc(-c2ccc(Cl)c(O[C@H]3O[C@H](CO)[C@@H](O)[C@H](O)[C@]3(C)O)c2)c1` [Compound 44], for which the IC50 was 43 ± 12 nM.

For the molecule `CNC(=O)c1ccc(-c2ccc(Cl)c(O[C@H]3O[C@H](CO)[C@@H](O)[C@H](O)[C@]3(C)O)c2)cc1` [Compound 45], the 50% inhibitory concentration (IC50) came to 116 ± 34 nM.

As to `CNC(=O)c1cccc(-c2cccc(O[C@H]3O[C@H](CO)[C@@H](O)[C@H](O)[C@]3(C)O)c2Cl)c1` [Compound 46], the IC50 worked out at 126 ± 38 nM.

For the molecule `CNC(=O)c1ccc(-c2cccc(O[C@H]3O[C@H](CO)[C@@H](O)[C@H](O)[C@]3(C)O)c2Cl)cc1` [Compound 47], the IC50 worked out at 55 ± 29 nM.

On to `CNC(=O)c1cccc(-c2ccc(O[C@H]3O[C@H](CO)[C@@H](O)[C@H](O)[C@@]3(O)CN)c(C)c2)c1` [Compound 48], for which the IC50 worked out at 605 ± 215 nM.

For the molecule `CNC(=O)c1cccc(-c2ccc(O[C@H]3O[C@H](CO)[C@@H](O)[C@H](O)[C@@]3(O)COCCOCc3ccccc3)c(C)c2)c1` [Compound 49], the concentration for half-maximal inhibition (IC50) amounted to 280 ± 20 nM.

Consider `CNC(=O)c1cccc(-c2ccc(O[C@H]3O[C@H](CO)[C@@H](O)[C@H](O)[C@@]3(O)COCCO)c(C)c2)c1` [Compound 50], for which the IC50 amounted to 830 ± 170 nM.

For the molecule `CNC(=O)c1cccc(-c2ccc(O[C@H]3O[C@H](CO)[C@@H](O)[C@H](O)[C@@]3(O)Cn3cc(CO)nn3)c(C)c2)c1` [Compound 51], the IC50 came out at 7150 ± 50 nM.

Turning to `CNC(=O)c1cccc(-c2ccc(O[C@H]3O[C@H](CO)[C@@H](O)[C@H](O)[C@@]3(O)CNC(C)=O)c(C)c2)c1` [Compound 52], the IC50 worked out at 48 ± 10 nM.

For the molecule `COCCNC(=O)c1cccc(-c2ccc(O[C@H]3O[C@H](CO)[C@@H](O)[C@H](O)[C@]3(C)O)c(Cl)c2)c1` [Compound 53], the IC50 came to 24 ± 6 nM.

As to `C[C@@]1(O)[C@@H](Oc2ccc(-c3ccc(C(=O)NC4CC4)c(Cl)c3)cc2Cl)O[C@H](CO)[C@@H](O)[C@@H]1O` [Compound 54], the IC50 was found to be 42 ± 7 nM.

`CNC(=O)c1cc(-c2ccc(O[C@H]3O[C@H](CO)[C@@H](O)[C@H](O)[C@]3(C)O)c(Cl)c2)ccc1F` [Compound 55]: the concentration for half-maximal inhibition (IC50) is 20 ± 0.5 nM.

With `CNC(=O)c1cc(F)cc(-c2ccc(O[C@H]3O[C@H](CO)[C@@H](O)[C@H](O)[C@]3(C)O)c(Cl)c2)c1` [Compound 56], the IC50 was 24 ± 0.5 nM.

As for `COC(=O)c1cccc(-c2ccc(O[C@H]3O[C@H](CO)[C@@H](O)[C@H](O)[C@]3(C)O)c(C)c2)c1` [Compound 57], the 50% inhibitory concentration (IC50) was 17 ± 4 nM.

On to `Cc1cc(-c2cccc(C(=O)NCCN3CCN(C)CC3)c2)ccc1O[C@H]1O[C@H](CO)[C@@H](O)[C@H](O)[C@]1(C)O` [Compound 58], for which the 50% inhibitory concentration (IC50) was 13 ± 1 nM.

Turning to `Cc1cc(-c2cccc(C(=O)N[C@@H](CO)[C@H](C)O)c2)ccc1O[C@H]1O[C@H](CO)[C@@H](O)[C@H](O)[C@]1(C)O` [Compound 59], the IC50 was determined as 20 ± 4 nM.

With `Cc1cc(-c2cccc(C(=O)NC(CO)(CO)CO)c2)ccc1O[C@H]1O[C@H](CO)[C@@H](O)[C@H](O)[C@]1(C)O` [Compound 60], the IC50 amounted to 16 ± 0.5 nM.

For `Cc1cc(-c2cccc(C(=O)NC(C)(CO)CO)c2)ccc1O[C@H]1O[C@H](CO)[C@@H](O)[C@H](O)[C@]1(C)O` [Compound 61], the IC50 was 22 ± 6 nM.

For the molecule `Cc1cc(-c2cccc(C(=O)NC(CO)CO)c2)ccc1O[C@H]1O[C@H](CO)[C@@H](O)[C@H](O)[C@]1(C)O` [Compound 62], the IC50 was 9 ± 3 nM.

Take `Cc1cc(-c2cccc(C(=O)NCCN3CCOCC3)c2)ccc1O[C@H]1O[C@H](CO)[C@@H](O)[C@H](O)[C@]1(C)O` [Compound 63]: the half-inhibitory concentration (IC50) came to 12 ± 3 nM.

Consider `Cc1cc(-c2cccc(C(=O)NC[C@H]3OC(O)[C@H](O)[C@@H](O)[C@@H]3O)c2)ccc1O[C@H]1O[C@H](CO)[C@@H](O)[C@H](O)[C@]1(C)O` (stereo partly drawn) [Compound 64], for which the IC50 came out at 20 ± 0.5 nM.

On to `Cc1cc(-c2cccc(C(=O)N[C@H]3[C@H](O)[C@@H](CO)OC(O)[C@@H]3O)c2)ccc1O[C@H]1O[C@H](CO)[C@@H](O)[C@H](O)[C@]1(C)O` (stereo partly drawn) [Compound 65], for which the IC50 came out at 20 ± 8 nM.

Take `Cc1cc(-c2cccc(C(=O)NCC3CCN(C(=O)OC(C)(C)C)CC3)c2)ccc1O[C@H]1O[C@H](CO)[C@@H](O)[C@H](O)[C@]1(C)O` [Compound 66]: the IC50 came to 11 ± 3 nM.

As to `Cc1cc(-c2cccc(C(=O)NCCN(C)C)c2)ccc1O[C@H]1O[C@H](CO)[C@@H](O)[C@H](O)[C@]1(C)O` [Compound 67], the IC50 was determined as 15 ± 6 nM.

On to `Cc1cc(-c2cccc(C(=O)N3CCN(C)CC3)c2)ccc1O[C@H]1O[C@H](CO)[C@@H](O)[C@H](O)[C@]1(C)O` [Compound 68], for which the IC50 was determined as 26 ± 4 nM.
